Legend:
[1] = test system: steatosis-induced Huh7 cells; assay: Fat globule reducing effect by Oil-Red-O staining, compared to existing developed materials; type: cell-based; conditions: FIG. 3
Protocol: In order to confirm the inhibition of fat accumulation in steatosis-induced liver cells, Huh7 cells were cultured in an incubator set at 37° C., 95% humidity, and 5% C02.
(§1) Additionally, Huh7 cells were proliferated to a confluency of 80-90% on a plate using a growth medium (Dulbecco's modified Eagle's medium (DMEM) supplemented with 10% fetal bovine serum (FBS), 100 U/ml of penicillin, and 100 μg/ml of streptomycin), and then used for the experiment.
(§2) In order to confirm the ability of BW-3290 to inhibit fat globule accumulation in steatosis-induced liver cells compared to the existing material under development, the liver cells were treated with palmitic acid (PA) bound to 2% BSA at a concentration of 250 μM except for the control group to induce steatosis, and then fat globules were stained through Oil-Red-O staining.
First, liver cells were cultured to grow 80-90% confluency in a 12 well plate, and the test material, BW-3290, were diluted in the culture medium that induced steatosis and the liver cells, except for the control group, were treated with 0.5 μM, 2.5 μM, 5 μM, and […].
Additionally, after removing the cell supernatant from the wells for Oil-Red-O staining, the washing process was performed twice with PBS.
Additionally, after washing, the resultant was fixed with 4% paraformaldehyde for 30 minutes. […]

[2] = test system: steatosis-induced Huh7 cells; assay: Fat globule reducing effect in steatosis-induced hepatocytes by Oil-Red-O staining; type: cell-based; conditions: 250 μM PA, 0.5, 2.5 and 10 μM, concentration dependent, FIG. 7
Protocol: According to an embodiment of the present invention, in order to confirm the effect of inhibiting the accumulation of triglycerides in steatosis-induced liver cells, the Huh7 cells were cultured in an incubator set at 37° C. with 95% humidity and 5% CO2.
as §1
as §2, with “According to an embodiment of the present invention, in” for “In”, “cells,” for “cells compared to the existing material under development,”
First, liver cells were cultured to grow 80-90% confluency in a 12 well plate, and the test material were diluted in the culture medium that induced steatosis and the liver cells, except for the control group, were treated with 0.5 μM, 2.5 μM, and 10 μM of the test material.
Additionally, after removing the cell supernatant from the wells for Oil-Red-O staining, the washing process was performed twice with PBS. […]

[3] = test system: steatosis-induced Huh-7 cells; assay: Expression of lipogenesis-related proteins (western blot); type: cell-based; conditions: Huh7 cells, 250 μM PA; 0.5, 2.5, 10 μM, 24 hours; FIG. 9-A
Protocol: To induce steatosis in Huh-7 cells in each well except for control cells, the Huh-7 cells were treated with PA bound to 2% BSA at a concentration of 250 μM except for the control, and the control cells were pretreated with 2% BSA without FA.
The cells in each well were treated with the compound of Chemical Formula 2 0.5 μM, 2.5 μM, and 10 μM and then cultured for 24 hours. The control cells and PA treated cells were treated with DMSO. All media were aspirated and the cells were gently washed 3 times with cold PBS.
A cold lysis buffer containing 150 mM sodium chloride (NaCl), 5 mM ethylenediaminetetraacetic acid (EDTA), pH 8.0, […] 4-(2-hydroxyethyl)-1-piperazineethanesulfonic acid (HEPES), 1% nonylphenoxypolyethoxylethanol (NP-40), 2 μg/mL aprotinin, 1 μM pepstatin A, 10 μM leupeptin, 1 mM sodium fluoride (NaF), 0.2 mM sodium orthovanadate ([…]), and 1 μM phenylmethylsulfonyl fluoride (PMSF) was added thereto.
A whole cell lysate was collected and gently pipetted at least 10 times to ensure complete lysis. The sample was incubated on ice for 20 minutes and centrifuged 4° C. at 13,000 rpm, for 20 minutes. […]
Images were acquired using an ImageQuant LAS 3000 (Fujifilm, Tokyo, Japan). Data were analyzed.

DIAMOND™ mouse model = assay: In-vivo activity in DIAMOND mouse model: body weight, liver weight, liver function enzymes; conditions: DIAMOND mice, 16 mg/kg oral once daily for 8 weeks
Protocol: The DIAMOND™ mouse model, an animal model prepared using a Western diet and sugar water, was used. The DIAMOND™ mice were induced with WDSW for 14 weeks, and 12 mice were used for the control group and 12 mice for the BW-3290 treatment group, and BW-3290 was orally administered at 16 mg/kg once daily for 8 weeks. An autopsy was performed at week 22, and blood collection and tissue storage were performed for the individuals in each group.

[4] = week 22, compared to control group (VC), FIG. 17
[5] = vs control group (VC), statistical significance

SMILES: CC(C)C(Nc1ncnc2nc[nH]c12)c1nc2cccc(Cl)c2c(=O)n1-c1ccccc1 (centres unmarked) [BW-3290, 2-(1-((7H-purin-6-yl)amino)-2-methylpropyl)-5-chloro-3-phenylquinazolin-4(3H)-one]
- fat globule staining (Oil-Red-O) compared to PA ([1]; 250 μM PA, 0.5, 2.5, 5 and 10 μM, concentration dependent): lower level of fat globule staining compared to PA
- staining of fat globules in comparison with PF-06409577 and elafibranor ([1]; 250 μM PA, at the same concentration of 10 μM and at lower concentrations): reduced
- fat globule staining (Oil-Red-O) compared to PA [2]: lower level of fat globule staining compared to PA
- level of FAS protein [3]: decreased in a concentration-dependent manner
- level of SREBP1 protein [3]: decreased in a concentration-dependent manner
- liver/body weight ratio (DIAMOND™ mouse model; week 22): improve
- body weight (DIAMOND™ mouse model; [4]): decreased
- liver weight (DIAMOND™ mouse model; [4]): decreased
- alkaline phosphatase (ALP) level (DIAMOND™ mouse model; vs control group (VC)): decreased
- alanine aminotransferase (ALT) level (DIAMOND™ mouse model; [5]): decreased
- aspartate aminotransferase (AST) level (DIAMOND™ mouse model; [5]): decreased
